From US12384771B2, “Pleuromutilin derivative containing thiazole-pyridine benzyl quaternary ammonium salt side chain and preparation method and use thereof” (SHAANXI UNIVERSITY OF SCIENCE AND TECHNOLOGY, priority 2022, dated 2025)
Converted amounts (≈) assume the structure as drawn. Where a name gives a salt, the structure may show the parent alone.

Assays:
[1] = test system: Staphylococcus epidermidis ATCC 12228; test: MIC, microbroth dilution, standard strains; format: cell-based; conditions: ATCC12228, ATCC 12228, read-out: Minimum inhibitory concentration
Procedure: (§1) The minimum inhibitory concentration (MIC) of the pleuromutilin derivative containing thiazole-pyridine benzyl quaternary ammonium salt side chain was tested with moxifloxacin as a positive control (purchased from Shanghai Macklin Biochemical Technology Co., Ltd.) using a microbroth dilution method.
(§2) Standard strains include gram-positive bacteria: Staphylococcus epidermidis ATCC 12228, Staphylococcus aureus ATCC 29213, ATCC 25923 and methicillin-resistant Staphylococcus aureus ATCC 33591; gram-negative bacteria: Salmonella ATCC 14028, Acinetobacter baumannii ATCC 19606, Escherichia coli ATCC 25922 and CMCC 44103, all the strains were purchased from the American Type Culture Collection.

Salmonella ATCC 14028 = test: MIC, microbroth dilution, standard strains; format: cell-based; conditions: ATCC14028, ATCC 14028, read-out: Minimum inhibitory concentration
Procedure: as §1, §2

[2] = test system: Staphylococcus aureus ATCC 29213; test: MIC, microbroth dilution, standard strains; format: cell-based; conditions: ATCC29213, ATCC 29213, read-out: Minimum inhibitory concentration
Procedure: as §1, §2

[3] = test system: Escherichia coli ATCC 25922; test: MIC, microbroth dilution, standard strains; format: cell-based; conditions: ATCC25922, ATCC 25922, read-out: Minimum inhibitory concentration
Procedure: as §1, §2

[4] = test system: Staphylococcus aureus ATCC 25923; test: MIC, microbroth dilution, standard strains; format: cell-based; conditions: ATCC25923, ATCC 25923, read-out: Minimum inhibitory concentration
Procedure: as §1, §2

[5] = test system: methicillin-resistant Staphylococcus aureus ATCC 33591; test: MIC, microbroth dilution, standard strains; format: cell-based; conditions: ATCC33591, ATCC 33591, read-out: Minimum inhibitory concentration
Procedure: as §1, §2

[6] = test system: Acinetobacter baumannii ATCC 19606; test: MIC, microbroth dilution, standard strains; format: cell-based; conditions: ATCC19606, ATCC 19606, read-out: Minimum inhibitory concentration
Procedure: as §1, §2

[7] = test system: Escherichia coli CMCC 44103; test: MIC, microbroth dilution, standard strains; format: cell-based; conditions: CMCC44103, CMCC 44103, read-out: Minimum inhibitory concentration
Procedure: as §1, §2

[8] = test system: carbapenem-resistant Acinetobacter baumannii (CR-AB) 18-184; test: MIC, clinical drug-resistant bacteria; format: cell-based; conditions: CR-AB 18-184, read-out: Minimum inhibitory concentration against clinical drug-resistant bacteria
Procedure: (§3) The minimum inhibitory concentration (MIC) of the pleuromutilin derivative containing thiazole-pyridine benzyl quaternary ammonium salt side chain was tested with moxifloxacin as a positive control (purchased from Shanghai Macklin Biochemical Technology Co., Ltd.) using a microbroth dilution method. At the same time, the pleuromutilin derivative containing thiazole-pyridine benzyl quaternary ammonium salt side chain of the invention was compared with the marketed pleuromutilin antibiotics, such as retapamulin (purchased from Nanjing Chemlin Chemical Industry Co., Ltd.), tiamulin (purchased from Shanghai Yuanye Bio-Technology Co., Ltd) and valnemulin (purchased from Shanghai Acmec Biochemical Co., Ltd), in order to screen out pleuromutilin derivatives with better activity.
(§4) Clinical resistant bacteria include multidrug-resistant Pseudomonas aeruginosa (MDR-PA) 18-993, 18-756 and 18-126, multidrug-resistant Klebsiella pneumoniae (MDR-KP) 18-893, 18-754 and 18-1482, methicillin-resistant Staphylococcus aureus (MRSA) 18-171, 18-209 and 18-575, vancomycin-resistant Enterococcus faecalis (VRE) 18-94, 18-80 and 18-507, and carbapenem-resistant Acinetobacter baumannii (CR-AB) 18-184, 18-560 and 18-882, all the clinical drug-resistant strains were from Huashan Hospital, Fudan University.

[9] = test system: vancomycin-resistant Enterococcus faecalis (VRE) 18-80; test: MIC, clinical drug-resistant bacteria; format: cell-based; conditions: VRE 18-80; read-out: Minimum inhibitory concentration against clinical drug-resistant bacteria
Procedure: as §3, §4

[10] = test system: multidrug-resistant Pseudomonas aeruginosa (MDR-PA) 18-126; test: MIC, clinical drug-resistant bacteria; format: cell-based; conditions: MDR-PA 18-126, read-out: Minimum inhibitory concentration against clinical drug-resistant bacteria
Procedure: as §3, §4

[11] = test system: carbapenem-resistant Acinetobacter baumannii (CR-AB) 18-882; test: MIC, clinical drug-resistant bacteria; format: cell-based; conditions: CR-AB 18-882, read-out: Minimum inhibitory concentration against clinical drug-resistant bacteria
Procedure: as §3, §4

[12] = test system: multidrug-resistant Klebsiella pneumoniae (MDR-KP) 18-893; test: MIC, clinical drug-resistant bacteria; format: cell-based; conditions: MDR-KP 18-893, read-out: Minimum inhibitory concentration against clinical drug-resistant bacteria
Procedure: as §3, §4

[13] = test system: multidrug-resistant Pseudomonas aeruginosa (MDR-PA) 18-993; test: MIC, clinical drug-resistant bacteria; format: cell-based; conditions: MDR-PA 18-993, read-out: Minimum inhibitory concentration against clinical drug-resistant bacteria
Procedure: as §3, §4

[14] = test system: vancomycin-resistant Enterococcus faecalis (VRE) 18-94; test: MIC, clinical drug-resistant bacteria; format: cell-based; conditions: VRE 18-94; read-out: Minimum inhibitory concentration against clinical drug-resistant bacteria
Procedure: as §3, §4

[15] = test system: methicillin-resistant Staphylococcus aureus (MRSA) 18-171; test: MIC, clinical drug-resistant bacteria; format: cell-based; conditions: MRSA 18-171, read-out: Minimum inhibitory concentration against clinical drug-resistant bacteria
Procedure: as §3, §4

[16] = test system: multidrug-resistant Klebsiella pneumoniae (MDR-KP) 18-754; test: MIC, clinical drug-resistant bacteria; format: cell-based; conditions: MDR-KP 18-754, read-out: Minimum inhibitory concentration against clinical drug-resistant bacteria
Procedure: as §3, §4

[17] = test system: multidrug-resistant Klebsiella pneumoniae (MDR-KP) 18-1482; test: MIC, clinical drug-resistant bacteria; format: cell-based; conditions: MDR-KP 18-1482, read-out: Minimum inhibitory concentration against clinical drug-resistant bacteria
Procedure: as §3, §4

[18] = test system: methicillin-resistant Staphylococcus aureus (MRSA) 18-575; test: MIC, clinical drug-resistant bacteria; format: cell-based; conditions: MRSA 18-575, read-out: Minimum inhibitory concentration against clinical drug-resistant bacteria
Procedure: as §3, §4

[19] = test system: methicillin-resistant Staphylococcus aureus (MRSA) 18-209; test: MIC, clinical drug-resistant bacteria; format: cell-based; conditions: MRSA 18-209, read-out: Minimum inhibitory concentration against clinical drug-resistant bacteria
Procedure: as §3, §4

[20] = test system: multidrug-resistant Pseudomonas aeruginosa (MDR-PA) 18-756; test: MIC, clinical drug-resistant bacteria; format: cell-based; conditions: MDR-PA 18-756, read-out: Minimum inhibitory concentration against clinical drug-resistant bacteria
Procedure: as §3, §4

[21] = test system: carbapenem-resistant Acinetobacter baumannii (CR-AB) 18-560; test: MIC, clinical drug-resistant bacteria; format: cell-based; conditions: CR-AB 18-560, read-out: Minimum inhibitory concentration against clinical drug-resistant bacteria
Procedure: as §3, §4

[22] = test system: vancomycin-resistant Enterococcus faecalis (VRE) 18-507; test: MIC, clinical drug-resistant bacteria; format: cell-based; conditions: VRE 18-507; read-out: Minimum inhibitory concentration against clinical drug-resistant bacteria
Procedure: as §3, §4

physchem = conditions: thermodynamic from solid
Procedure: Experimental method: representative compounds 2, 4 and 7 were selected for solubility determination, and retapamulin hydrochloride was used as a control. 1 mg of each sample was taken and quantitatively dissolved in a 10 mL volumetric flask, and the absorption peak area was measured by a high-performance liquid chromatography; then, the saturated solutions of the representative compounds 2, 4 and 7 and the control drug retapamulin were diluted 10-fold, and the absorption peak area was determined by HPLC; their respective solubility was obtained by calculating the absorption peak area.
The experimental instrument was Shimadzu LC-16, the chromatographic column was Hypersil C18 ODS (4.6×250 mm×5 μm), the flow rate was 1.0 mL/min, the detection wavelength was 300 nm, and the mobile phase was 0.05 mol/L of aqueous acetic acid solution:acetonitrile=30:70.

[23] = test system: Mycoplasma hyopneumoniae clinical isolate LH strain (Mhp-LH); test: Anti-mycoplasma activity assay, MIC; format: cell-based; conditions: Mesomycoplasma hyopneumoniae
Procedure: (§5) The minimum inhibitory concentration of the pleuromutilin derivative containing thiazole-pyridine benzyl quaternary ammonium salt side chain against different mycoplasmas was tested with tiamulin as (purchased from Shanghai Yuanye Bio-Technology Co., Ltd) a positive control using a microbroth dilution method, and the antibacterial effect of the compound against different mycoplasmas was evaluated.
(§6) Experimental strains include Mycoplasma hyopneumoniae standard strain J strain (Mhp-J; NCTC 10110), Mycoplasma hyopneumoniae clinical isolate LH strain (Mhp-LH), Mycoplasma hyorhini standard strain BTS-7 strain (Mhr-BTS-7; NCTC 10130), Mycoplasma gallisepticum R strain (MG-R) and Mycoplasma synoviae WVU1853 strain (MS-WVU1853; NCTC 10124) (purchased from National Collection of Type Cultures, United Kingdom).
(§7) The specific operation steps are as follows: • (1) preparation of KM2 medium: 38.9 g of KM2 medium (purchased from Guangdong Huankai Microbial Sci. & Tech. Co., Ltd.) was weighed, added to 800 mL of distilled water, boiled and dissolved, and autoclaved at 115° C. for 20 min for later use. • (2) preparation of bacterial liquid stock: 0.5 mL of each of Mycoplasma hyopneumoniae (Mhp), Mycoplasma hyorhina (Mhr), Mycoplasma gallisepticum (MG) and Mycoplasma synoviae (MS) was taken and transferred to 4.5 mL of KM2 liquid medium, and when the colour of the medium turned yellow, each of the bacteria was sub-packaged at 0.5 mL per tube, and stored as the bacterial liquid at −70° C. • (3) determination of bacterial liquid titre (colour change unit, CCU): 96-well plate method was used to measure the bacterial liquid titre. The preserved bacterial liquid stock was taken from −70° C., melt and equilibrated to room temperature. 0.18 mL of KM2 medium was added to each well of the middle 4 rows of the 96-well plate (that is, 4 parallels), 0.02 mL of the bacterial liquid stock was taken and added to the wells of the first column, respectively, and subjected to 10-fold dilution until 10^−11. A negative control containing only KM2 medium was set (column 12). The plate was sealed and put into an incubator at 37° C., and the results were observed day by day. The highest dilution at which the colour of the medium can change was the CCU/mL of the strain. • (4) determination of MIC: the minimum inhibitory concentration of the compound against mycoplasmas was determined by a microbroth dilution method. Each drug to be tested was prepared as a stock solution with a concentration of 2560 μg/mL, and each drug stock solution was 2-fold diluted with KM2 liquid medium, and the test concentration range was 0.015-128 μg/mL (large concentration gradient) and 0.000004-0.06 μg/mL (small concentration gradient). An appropriate amount of seed bacterial liquid was taken and diluted to 10^4 CCU/mL serially according to its titre. Drugs of various dilutions were added sequentially to the 96-well plate, and then an equal amount of diluted bacterial liquid was added. 200 μL of diluted mycoplasma liquid was set as a positive control, 200 μL of KM2 liquid culture medium was set as a negative control, and a solvent control group (10 μL of drug solvent+190 μL of mycoplasma liquid) was also set. Three parallels were set for each experiment. After all the culture plates were sealed, they were allowed to culture at 37° C. and observed daily, and the final MIC values were recorded. (See FIG. 22 for the MIC determination results of the representative compound 7 against 5 mycoplasma strains)

[24] = test system: Mycoplasma hyorhini standard strain BTS-7 strain (Mhr-BTS-7; NCTC 10130); test: Anti-mycoplasma activity assay, MIC; format: cell-based; conditions: NCTC10130
Procedure: as §5, §6, §7

[25] = test system: Mycoplasma synoviae WVU1853 strain (MS-WVU1853; NCTC 10124); test: Anti-mycoplasma activity assay, MIC; format: cell-based; conditions: Mycoplasmopsis synoviae, NCTC10124
Procedure: as §5, §6, §7

[26] = test system: Mycoplasma gallisepticum R strain (MG-R); test: Anti-mycoplasma activity assay, MIC; format: cell-based; conditions: Mycoplasmoides gallisepticum
Procedure: as §5, §6, §7

[27] = test system: Mycoplasma hyopneumoniae standard strain J strain (Mhp-J; NCTC 10110); test: Anti-mycoplasma activity assay, MIC; format: cell-based; conditions: Mesomycoplasma hyopneumoniae, NCTC10110
Procedure: as §5, §6, §7

SMILES: C=C[C@]1(C)C[C@@H](OC(=O)CSc2nc(-c3cc[n+](Cc4ccc(OC)cc4)cc3)cs2)[C@]2(C)[C@H](C)CC[C@]3(CCC(=O)[C@H]32)[C@@H](C)[C@@H]1O [Compound 4, 1-(4-(methoxy)benzyl)-4-(2-(8-hydroxy-4,7,9,12-tetramethyl-3-oxo-7-vinyldecahydro-4,9a-propancyclopent[8]cyclen-5-yl)oxy)-2-oxoethyl)thiazol-4-yl)pyridyl bromide salt]
- MIC [1]: 1 µg/mL
- MIC (Salmonella ATCC 14028): 0.5 µg/mL
- MIC [2]: 0.5 µg/mL
- MIC [3]: 0.5 µg/mL
- MIC [4]: 0.5 µg/mL
- MIC [5]: 1 µg/mL
- MIC [6]: 2 µg/mL
- MIC [7]: 1 µg/mL
- MIC [8]: 64 µg/mL
- MIC [9]: 2 µg/mL
- MIC [10]: 64 µg/mL
- MIC [11]: 8 µg/mL
- MIC [12]: 64 µg/mL
- MIC [13]: 64 µg/mL
- MIC [14]: > 128 µg/mL
- MIC [15]: 16 µg/mL
- MIC [16]: 32 µg/mL
- MIC [17]: 64 µg/mL
- MIC [18]: > 128 µg/mL
- MIC [19]: 128 µg/mL
- MIC [20]: > 128 µg/mL
- MIC [21]: > 128 µg/mL
- MIC [22]: > 128 µg/mL
- solubility (physchem; organic solvent or mixture): 11900 µg/mL
- solubility (physchem; pH 1.5, simulated gastric fluid): 3120 µg/mL
- solubility (physchem; pH 7, water): 2320 µg/mL

SMILES: C=C[C@]1(C)C[C@@H](OC(=O)CSCCN(CC)CC)[C@]2(C)[C@H](C)CC[C@]3(CCC(=O)[C@H]32)[C@@H](C)[C@@H]1O [Tiamulin, tiamulin, reference compound]
- MIC [1]: 16 µg/mL (≈ 32.4 µM)
- MIC (Salmonella ATCC 14028): 128 µg/mL (≈ 259 µM)
- MIC [2]: > 128 µg/mL
- MIC [3]: 128 µg/mL (≈ 259 µM)
- MIC [4]: 64 µg/mL (≈ 130 µM)
- MIC [5]: 128 µg/mL (≈ 259 µM)
- MIC [6]: 64 µg/mL (≈ 130 µM)
- MIC [7]: 64 µg/mL (≈ 130 µM)
- MIC [23]: 0.015 µg/mL (≈ 0.0304 µM)
- MIC [24]: 0.03 µg/mL (≈ 0.0608 µM)
- MIC [25]: 2 µg/mL (≈ 4.05 µM)
- MIC [26]: 0.125 µg/mL (≈ 0.253 µM)
- MIC [27]: 0.03 µg/mL (≈ 0.0608 µM)
